Data: ChEMBL document CHEMBL3885861, “Open TG-GATES”

Organism: Rattus norvegicus
Experiment: Open TG-GATES - Regimen: Daily Repeat
Format: toxicity, organism-based, Sprague-Dawley
Design: regimen Daily Repeat, gender Male, age 6 weeks
Settings: in vivo, po, 30 mg/kg, route gavage, dose level Middle; for APTT / Bas / Eos / Fbg / Hb / Ht / Lym / MCH / MCHC / MCV / Mono / Neu / PT / Plat / RBC / Ret / WBC: tissue Blood; for KIDNEY_L / KIDNEY_R / KIDNEY_TOTAL: tissue Kidney; for LIVER: tissue Liver; for A/G / ALP / ALT / AST / BUN / CRE / Ca / Cl / DBIL / GLC / IP / K / LDH / Na / PL / RALB / TBIL / TC / TG / TP / gamma-GTP: tissue Plasma

SMILES: CCCc1cc(=O)[nH]c(=S)[nH]1 [PROPYLTHIOURACIL]
- TERMINAL_BW (72 h, time 3 day): 205.6 g
- APTT (72 h, time 3 day): 15.9 s
- Bas (72 h, time 3 day): 0%
- Eos (72 h, time 3 day): 0.4%
- Fbg (72 h, time 3 day): 242.4 mg/dL
- Hb (72 h, time 3 day): 13.6 g/dL
- Ht (72 h, time 3 day): 40.9%
- Lym (72 h, time 3 day): 73%
- MCH (72 h, time 3 day): 21.9 pg
- MCHC (72 h, time 3 day): 33.3%
- MCV (72 h, time 3 day): 65.7 fL
- Mono (72 h, time 3 day): 7.4%
- Neu (72 h, time 3 day): 19.2%
- PT (72 h, time 3 day): 12.2 s
- Plat (72 h, time 3 day): 114 x10_4/uL
- RBC (72 h, time 3 day): 623 x10_4/ul
- Ret (72 h, time 3 day): 6.7%
- WBC (72 h, time 3 day): 122.6 x10_2/uL
- KIDNEY_L (72 h, time 3 day): 0.9 g
- KIDNEY_R (72 h, time 3 day): 0.9 g
- KIDNEY_TOTAL (72 h, time 3 day): 1.8 g
- LIVER (72 h, time 3 day): 11.4 g
- A/G (72 h, time 3 day): 1.8
- ALP (72 h, time 3 day): 907.2 IU/L
- ALT (72 h, time 3 day): 36 IU/L
- AST (72 h, time 3 day): 64 IU/L
- BUN (72 h, time 3 day): 18.2 mg/dL
- CRE (72 h, time 3 day): 0.5 mg/dL
- Ca (72 h, time 3 day): 11.3 mg/dL
- Cl (72 h, time 3 day): 106 meq/L
- DBIL (72 h, time 3 day): 0.024 mg/dL
- GLC (72 h, time 3 day): 192 mg/dL
- IP (72 h, time 3 day): 7.6 mg/dL
- K (72 h, time 3 day): 4.6 meq/L
- LDH (72 h, time 3 day): 150.8 IU/L
- Na (72 h, time 3 day): 138.4 meq/L
- PL (72 h, time 3 day): 183 mg/dL
- RALB (72 h, time 3 day): 3.9 g/dL
- TBIL (72 h, time 3 day): 0.3 mg/dL
- TC (72 h, time 3 day): 106.4 mg/dL
- TG (72 h, time 3 day): 97 mg/dL
- TP (72 h, time 3 day): 6 g/dL
- gamma-GTP (72 h, time 3 day): 1.2 IU/L
- TERMINAL_BW ([…], time 7 day): 228.6 g
- TERMINAL_BW ([…], time 14 day): 248.6 g
- TERMINAL_BW ([…], time 28 day): 242.7 g
- APTT ([…], time 7 day): 16.2 s
- Bas ([…], time 7 day): 0%
- Eos ([…], time 7 day): 0.2%
- Fbg ([…], time 7 day): 264 mg/dL
- Hb ([…], time 7 day): 13.7 g/dL
- Ht ([…], time 7 day): 40.3%
- Lym ([…], time 7 day): 82.4%
- MCH ([…], time 7 day): 21.5 pg
- MCHC ([…], time 7 day): 34.1%
- MCV ([…], time 7 day): 63.2 fL
- Mono ([…], time 7 day): 8.4%
- Neu ([…], time 7 day): 9%
- PT ([…], time 7 day): 12.9 s
- Plat ([…], time 7 day): 122.5 x10_4/uL
- RBC ([…], time 7 day): 638 x10_4/ul
- Ret ([…], time 7 day): 3.7%
- WBC ([…], time 7 day): 123.8 x10_2/uL
- APTT ([…], time 14 day): 16.6 s
- Bas ([…], time 14 day): 0%
- Eos ([…], time 14 day): 0.2%
- Fbg ([…], time 14 day): 204.2 mg/dL
- Hb ([…], time 14 day): 14.8 g/dL
- Ht ([…], time 14 day): 43.8%
- Lym ([…], time 14 day): 86.2%
- MCH ([…], time 14 day): 21 pg
- MCHC ([…], time 14 day): 33.7%
- MCV ([…], time 14 day): 62.2 fL
- Mono ([…], time 14 day): 3.6%
- Neu ([…], time 14 day): 10%
- PT ([…], time 14 day): 13.8 s
- Plat ([…], time 14 day): 89 x10_4/uL
- RBC ([…], time 14 day): 705.4 x10_4/ul
- Ret ([…], time 14 day): 1.5%
- WBC ([…], time 14 day): 134 x10_2/uL
- APTT ([…], time 28 day): 15.1 s
- Bas ([…], time 28 day): 0%
- Eos ([…], time 28 day): 1%
- Fbg ([…], time 28 day): 171 mg/dL
- Hb ([…], time 28 day): 15.8 g/dL
- Ht ([…], time 28 day): 46.9%
- Lym ([…], time 28 day): 85.2%
- MCH ([…], time 28 day): 19.5 pg
- MCHC ([…], time 28 day): 33.7%
- MCV ([…], time 28 day): 57.7 fL
- Mono ([…], time 28 day): 3%
- Neu ([…], time 28 day): 10.8%
- PT ([…], time 28 day): 14.2 s
- Plat ([…], time 28 day): 82.1 x10_4/uL
- RBC ([…], time 28 day): 813.2 x10_4/ul
- Ret ([…], time 28 day): 0.6%
- WBC ([…], time 28 day): 63 x10_2/uL
- KIDNEY_L ([…], time 7 day): 0.9 g
- KIDNEY_R ([…], time 7 day): 0.9 g
- KIDNEY_TOTAL ([…], time 7 day): 1.8 g
- KIDNEY_L ([…], time 14 day): 0.9 g
- KIDNEY_R ([…], time 14 day): 0.9 g
- KIDNEY_TOTAL ([…], time 14 day): 1.9 g
- KIDNEY_L ([…], time 28 day): 0.8 g
- KIDNEY_R ([…], time 28 day): 0.8 g
- KIDNEY_TOTAL ([…], time 28 day): 1.6 g
- LIVER ([…], time 7 day): 12.4 g
- LIVER ([…], time 14 day): 11.5 g
- LIVER ([…], time 28 day): 9.6 g
- A/G ([…], time 7 day): 1.7
- ALP ([…], time 7 day): 735.2 IU/L
- ALT ([…], time 7 day): 31.6 IU/L
- AST ([…], time 7 day): 54.8 IU/L
- BUN ([…], time 7 day): 21.8 mg/dL
- CRE ([…], time 7 day): 0.5 mg/dL
- Ca ([…], time 7 day): 11.6 mg/dL
- Cl ([…], time 7 day): 106 meq/L
- DBIL ([…], time 7 day): 0.018 mg/dL
- GLC ([…], time 7 day): 173.6 mg/dL
- IP ([…], time 7 day): 6.8 mg/dL
- K ([…], time 7 day): 4.6 meq/L
- LDH ([…], time 7 day): 85.8 IU/L
- Na ([…], time 7 day): 140.6 meq/L
- PL ([…], time 7 day): 170.6 mg/dL
- RALB ([…], time 7 day): 4.2 g/dL
- TBIL ([…], time 7 day): 0.3 mg/dL
- TC ([…], time 7 day): 111.2 mg/dL
- TG ([…], time 7 day): 80.2 mg/dL
- TP ([…], time 7 day): 6.7 g/dL
- gamma-GTP ([…], time 7 day): 2.2 IU/L
- A/G ([…], time 14 day): 1.7
- ALP ([…], time 14 day): 562.2 IU/L
- ALT ([…], time 14 day): 27.6 IU/L
- AST ([…], time 14 day): 51.2 IU/L
- BUN ([…], time 14 day): 24.2 mg/dL
- CRE ([…], time 14 day): 0.7 mg/dL
- Ca ([…], time 14 day): 11.5 mg/dL
- Cl ([…], time 14 day): 106.8 meq/L
- DBIL ([…], time 14 day): 0.004 mg/dL
- GLC ([…], time 14 day): 180.6 mg/dL
- IP ([…], time 14 day): 6.4 mg/dL
- K ([…], time 14 day): 4 meq/L
- LDH ([…], time 14 day): 70.2 IU/L
- Na ([…], time 14 day): 141.4 meq/L
- PL ([…], time 14 day): 157.4 mg/dL
- RALB ([…], time 14 day): 4.3 g/dL
- TBIL ([…], time 14 day): 0.2 mg/dL
- TC ([…], time 14 day): 103 mg/dL
- TG ([…], time 14 day): 43.4 mg/dL
- TP ([…], time 14 day): 6.9 g/dL
- gamma-GTP ([…], time 14 day): 2.2 IU/L
- A/G ([…], time 28 day): 2
- ALP ([…], time 28 day): 475.4 IU/L
- ALT ([…], time 28 day): 34 IU/L
- AST ([…], time 28 day): 58.4 IU/L
- BUN ([…], time 28 day): 27.2 mg/dL
- CRE ([…], time 28 day): 0.7 mg/dL
- Ca ([…], time 28 day): 10.8 mg/dL
- Cl ([…], time 28 day): 108.8 meq/L
- DBIL ([…], time 28 day): 0.062 mg/dL
- GLC ([…], time 28 day): 168.6 mg/dL
- IP ([…], time 28 day): 5.4 mg/dL
- K ([…], time 28 day): 4.3 meq/L
- LDH ([…], time 28 day): 71.4 IU/L
- Na ([…], time 28 day): 142.2 meq/L
- PL ([…], time 28 day): 165.8 mg/dL
- RALB ([…], time 28 day): 4.5 g/dL
- TBIL ([…], time 28 day): 0.2 mg/dL
- TC ([…], time 28 day): 105.4 mg/dL
- TG ([…], time 28 day): 46.8 mg/dL
- TP ([…], time 28 day): 6.8 g/dL
- gamma-GTP ([…], time 28 day): 2.4 IU/L
